In patent US9999611B2, “SIRT 1 activator including syringaresinol” (AMOREPACIFIC CORPORATION, priority 2011, dated 2018):

How the values were obtained:
gingival fibroblasts = assay: Cellular activity promoting effect in gingival fibroblasts (MTT assay); format: cell-based, human; settings: cigarette smoke condensate 100 μg/mL, syringaresinol 50 or 100 μg/mL, 2 days, FIG. 3
Experimental: Gingival fibroblasts subcultured for 5-6 times in substantially the same manner as in Test Example 1 were seeded onto a 24-well plate, with 1×10^4 cells per well. After culturing for 1 day, cigarette smoke condensate was added with a concentration of 100 μg/mL in substantially the same manner as in Test Example 1 and the syringaresinol obtained in Example was added after dissolving in DMSO to a concentration of 50 or 100 μg/mL. A control group was treated with DMSO corresponding to 1/1000 of the volume of the culture medium. Also, a group which was treated with neither the cigarette smoke condensate nor the test substance was prepared. After culturing for 2 days and adding 300 μL of 3-(4,5-dimethylthiazol-2-yl)-2,5-diphenyltetrazolium bromide (MTT; Sigma, USA) dissolved in physiological saline per each well, the cells were cultured for 4 hours. After removing the culture medium and dissolving formazan crystals by adding 200 μL of dimethyl sulfoxide (DMSO; Junsei, Japan), absorbance was measured at 540 nm using an ELISA reader (Spectra MAX 250, Molecular Devices Co., USA). Each experiment was repeated 3 times.

SIRT1 = SIRT1 expression promoting effect in aged human retinal epithelial cells (western blotting); format: cell-based; settings: aged ARPE-19 cells (5 PDL to 15 PDL), FIG. 14
Experimental: The SIRT1 gene expression promoting effect of syringaresinol in aged human retinal epithelial cells was evaluated as follows. Human retinal […] cell line ARPE-19 was purchased from ATCC (Manassa, Va., USA) and cultured in a 5% CO2 incubator using DMEM (Gibco BRL, Grand Island, N.Y., USA) containing 10% bovine serum, 1% penicillin/streptomycin, amphotericin B and an antifungal agent until 70% confluency. […] The population doubling level (PDL) was calculated according to the following equation for each generation until the cell growth was stopped. The PDL value is higher in aged cells. PDL=(Log10Y−Log10X)/Log102 Y: number of cells at the end of the generation X: number of cells at the beginning of the generation 5 PDL cells were treated with syringaresinol dissolved in DMSO at a concentration of 50 or 100 μM every other day while inducing aging to 15 PDL cells. The cells of a negative control were treated with DMSO corresponding to 1/1000 of the volume of the culture medium. […] The isolated protein was quantitated using the BCA assay kit (Pierce, Rockford, USA) and 30 μg was subjected to western blotting using the iBlot Dry blotting system (Invitrogen, Carlsbad, Calif., USA). The SIRT1 protein expression level was measured using anti-SIRT1 antibody (Santa Cruz Biotechnology, Santa Cruz, Calif., USA).

PGC-1α = PGC-1α mRNA expression promoting effect (qRT-PCR); format: cell-based, human; settings: 50 μM, vs DMSO control, FIG. 12
Experimental: Human adipocytes, hepatocytes and myocytes were treated with 50 μM syringaresinol in substantially the same manner as in Test Example 3 and washed with PBS. Then, RNA and cDNA were sequentially extracted therefrom. The mRNA expression of the energy metabolism-related genes PGC-1α and PGC-1β was analyzed by qRT-PCR. A result of comparing the expression of PGC-1α and PGC-1β with a control group treated only with DMSO is shown in FIG. 12 and FIG. 13, respectively.

[1] = system: aged retinal cells (ARPE-19); assay: Mitochondrial function recovering effect in aged retinal cells: energy (ATP) production; format: cell-based, human; settings: compared to cells treated only with DMSO, FIG. 16
Experimental: The aging of retinal cells was induced while treating with 50 or 100 μM syringaresinol or with DMSO as a negative control, in substantially the same manner as in Test Example 7. For evaluation of mitochondrial function recovering effect, the level of energy (ATP) and reactive oxygen species production in retinal cells was investigated. The energy production was determined by recovering the aged cells after washing with PBS and then with hot water and measuring luminescence using the ATP determination kit (Molecular Probes, Eugene, Oreg., USA) and the Tecan system (Infinite M200, Tecan, Austria). The reactive oxygen species production was measured using a flow cytometer (BD Biosciences, San Jose, Calif., USA) after washing the aged cells with PBS and staining them with the reactive oxygen species detection reagent (H2DCFDA, Invitrogen, Carlsbad, Calif., USA).

human PBMCs = assay: Human PBMC migration and deposition onto 3T3-L1 adipocytes (TNF-induced); format: cell-based; settings: human PBMCs, 20, 50 or 100 μM, 10 ng/mL TNF, differentiated 3T3-L1 adipocytes, 48 hours; FIG. 20
Experimental: After treating human PBMCs with 20, 50 or 100 μM syringaresinol or DMSO in substantially the same manner as in Test Example 11, inflammatory response was induced by treating with 10 ng/mL TNF. After treating differentiated 3T3-L1 adipocytes (Zen-Bio) with the PBMCs, it was investigated whether the PBMCs migrate onto the adipocytes and deposit. 48 hours later, after removing the PBMCs remaining without migrating, the cells were detached from a culture dish using trypsin/EDTA and then counted using a cell counter.

COc1cc(C2OCC3C(c4cc(OC)c(O)c(OC)c4)OCC23)cc(OC)c1O (stereo not drawn) [syringaresinol]
cellular activity (MTT, absorbance at 540 nm) (gingival fibroblasts): recovered cellular activity, which had been decreased due to smoking, to a level substantially comparable to the normal level
SIRT1 protein expression (SIRT1; 100 μM every other day): increased SIRT1 expression to a level comparable to that of young retinal epithelial cells
SIRT1 protein expression (SIRT1; 50 or 100 μM every other day): increased SIRT1 expression, which had been decreased in aged retinal cells, in a concentration-dependent manner
expression of PGC-1α (PGC-1α; human adipocytes): increased the expression
expression of PGC-1α (PGC-1α; human hepatocytes): increased the expression
expression of PGC-1α (PGC-1α; human myocytes): increased the expression
increased energy (ATP) production ([1]; 50 μM): about 21%
increased energy (ATP) production ([1]; 100 μM): ~33%
inhibition of migration and deposition of PBMCs onto adipocytes (human PBMCs): about 50%
